From patent US11999794B2, “Human mesothelin chimeric antigen receptors and uses thereof” (Novartis AG, priority 2013, dated 2024)

B1: M5: human anti-mesothelin scFv SEQ ID NO: 43; full CAR SEQ ID NO: 67 (protein)
scFv: QVQLVQSGAEVEKPGASVKVSCKASGYTFTDYYMHWVRQAPGQGLEWMGWINPNSGGTNYAQKFQGRVTMTRDTSISTAYMELSRLRSDDTAVYYCASGWDFDYWGQGTLVTVSSGGGGSGGGGSGGGGSGGGGSDIVMTQSPSSLSASVGDRVTITCRASQSIRYYLSWYQQKPGKAPKLLIYTASILQNGVPSRFSGSGSGTDFTLTISSLQPEDFATYYCLQTYTTPDFGPGTKVEIK

Experiments:
[1] = test system: H1N1 A/California/07/2009; experiment: Hemagglutination inhibition titers and seroconversion; assay type: in vivo, human; conditions: for Percent of subjects with seroconversion to influenza 4 weeks after vaccination: H1N1; for GMT ratio, A/H1N1: GMT at week 4 post vaccination/GMT at baseline
Experimental: (§1) The trial was observer-blind because the placebo in the RAD001 0.5 mg daily and 20 mg weekly cohorts differed slightly from the RAD001 tablets in those cohorts. […] The treatment duration for all cohorts was 6 weeks during which time subjects underwent safety evaluations in the clinic every 2 weeks. After subjects had been dosed for 4 weeks, RAD001 steady state levels were measured pre-dose and at one hour post dose. After completing the 6 week course of study drug, subjects were given a 2 week drug free break to reverse any possible RAD001-induced immunosuppression, and then were given a 2012 seasonal influenza vaccination (Agrippal®, Novartis Vaccines and Diagnostics, Siena, Italy) containing the strains H1N1 A/California/07/2009, H3N2 A/Victoria/210/2009, B/Brisbane/60/2008. Four weeks after influenza vaccination, subjects had serum collected for influenza titer measurements. Antibody titers to the 3 influenza vaccine strains as well as to 2 heterologous strains (A/H1N1 strain A/New Jersey/8/76 and A/H3N2 strain A/Victoria/361/11) were measured by standard hemagglutination inhibition assay (Kendal, A P et al. (1982) Concepts and procedures for laboratory-based influenza surveillance. Atlanta: Centers for Disease Control and Prevention B17-B35). Levels of IgG and IgM specific for the A/H1N1/California/07/2009 were measured in serum samples taken before and 4 weeks after influenza vaccination as described previously (Spensieri, F. et al. (2013) Proc. Natl. Acad. Sci. USA 110:14330-14335). Results were expressed as fluorescence intensity.
(§2) The ability of RAD001 to improve immune function in elderly volunteers was evaluated by measuring the serologic response to the 2012 seasonal influenza vaccine. The hemagglutination inhibition (HI) geometric mean titers (GMT) to each of the 3 influenza vaccine strains at baseline and 4 weeks after influenza vaccination are provided in Table 10. The primary analysis variable was the HI GMT ratio (4 weeks post vaccination/baseline). […] This endpoint was chosen because a 1.2-fold increase in the influenza GMT ratio induced by the MF-59 vaccine adjuvant was associated with a decrease in influenza illness (Iob, A et al. (2005) Epidemiol Infect 133:687-693).
(§3) Rates of seroconversion 4 weeks after influenza vaccination were also evaluated. Seroconversion was defined as the change from a negative pre-vaccination titer (i.e., HI titer <1:10) to post-vaccination HI titer ≥1:40 or at least 4-fold increase from a non-negative (≥1:10) pre-vaccination HI titer.

H3N2 A/Victoria/210/2009 = experiment: as above; assay type: in vivo, human; conditions: for Percent of subjects with seroconversion to influenza 4 weeks after vaccination: H3N2; for GMT ratio, A/H3N2: GMT at week 4 post vaccination/GMT at baseline
Experimental: as §1, §2, §3

hMSLN296-588 = biological target: T1, hMSLN296-588 (Homo sapiens, UniProt Q13421, N388Q/N488Q/N515Q); experiment: Hydrogen-deuterium exchange mass spectrometry epitope mapping; assay type: binding; conditions: amino acid position 297 to 464
T1 construct: secretion signal […]; made in house; host or cells: Expi293 (alone, or co-expressed with scFv M5)
Description: Hydrogen-deuterium exchange (HDx) in combination with mass spectrometry (MS) (Woods V L, Hamuro Y (2001) High Resolution, High-Throughput Amide Deuterium Exchange-Mass Spectrometry (DXMS) Determination of Protein Binding Site Structure and Dynamics: Utility in Pharmaceutical Design. J. Cell. Biochem. Supp.; 84(37): 89-98.) was used to map the putative binding site of scFv antibodies M5 and SS1 on human mesothelin(296-588), referred to herein as hMSLN296-588 (SEQ ID No 278). In HDx, exchangeable amide hydrogens of proteins are replaced by deuterium. This process is sensitive to protein structure/dynamics and solvent accessibility and, therefore, able to report on locations that undergo a decrease in deuterium uptake upon ligand binding.
HDx/MS experiments were performed using methods similar to those described in the literature (Chalmers M J, Busby S A, Pascal B D, He Y, Hendrickson C L, Marshall A G, Griffin P R (2006) Probing protein ligand interactions by automated hydrogen/deuterium exchange mass spectrometry. Anal. Chem.; 78(4): 1005-1014.Chalmers, 2006). The experiments were performed on a Waters HDx/MS platform, which included a LEAP autosampler, nanoACQUITY UPLC, and Synapt G2 mass spectrometer. […]

[2] = Intention to Treat Population, 0.5 mg, N = 48
[3] = Intention to Treat Population, 5 mg, N = 49
[4] = Intention to Treat Population, 20 mg, N = 48
[5] = Subjects with Baseline Titers <=40, 0.5 mg
[6] = Subjects with Baseline Titers <=40, 5 mg
[7] = Subjects with Baseline Titers <=40, 20 mg

T1 sequence (Q13421 with tags, fused parts or gaps N388Q/N488Q/N515Q): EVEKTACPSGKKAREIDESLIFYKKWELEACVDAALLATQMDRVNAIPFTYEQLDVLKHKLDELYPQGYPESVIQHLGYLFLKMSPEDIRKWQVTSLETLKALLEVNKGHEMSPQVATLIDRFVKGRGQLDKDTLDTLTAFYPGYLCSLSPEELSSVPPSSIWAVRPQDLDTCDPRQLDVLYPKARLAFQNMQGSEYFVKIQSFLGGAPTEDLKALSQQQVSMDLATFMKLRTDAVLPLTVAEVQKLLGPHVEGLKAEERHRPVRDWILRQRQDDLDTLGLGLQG

Molecule	Percent of subjects with seroconversion to influenza 4 weeks after vaccination [1, 2] [%]	Percent of subjects with seroconversion to influenza 4 weeks after vaccination [1, 3] [%]	Percent of subjects with seroconversion to influenza 4 weeks after vaccination [1, 4] [%]	Percent of subjects with seroconversion to influenza 4 weeks after vaccination [1, 5] [%]	Percent of subjects with seroconversion to influenza 4 weeks after vaccination [1, 6] [%]	Percent of subjects with seroconversion to influenza 4 weeks after vaccination [1, 7] [%]	GMT ratio, A/H1N1 ([1]; RAD001 5 mg weekly, N = 49)	GMT ratio, A/H1N1 ([1]; RAD001 20 mg weekly, N = 49)	Percent of subjects with seroconversion to influenza 4 weeks after vaccination (H3N2 A/Victoria/210/2009; [2]) [%]	Percent of subjects with seroconversion to influenza 4 weeks after vaccination (H3N2 A/Victoria/210/2009; [3]) [%]	Percent of subjects with seroconversion to influenza 4 weeks after vaccination (H3N2 A/Victoria/210/2009; [4]) [%]	Percent of subjects with seroconversion to influenza 4 weeks after vaccination (H3N2 A/Victoria/210/2009; [5]) [%]	Percent of subjects with seroconversion to influenza 4 weeks after vaccination (H3N2 A/Victoria/210/2009; [6]) [%]	Percent of subjects with seroconversion to influenza 4 weeks after vaccination (H3N2 A/Victoria/210/2009; [7]) [%]	GMT ratio, A/H3N2 (H3N2 A/Victoria/210/2009; RAD001 5 mg weekly, N = 49)	GMT ratio, A/H3N2 (H3N2 A/Victoria/210/2009; RAD001 20 mg weekly, N = 49)	mesothelin peptides significantly protected from deuterium uptake (hMSLN296-588)
CO[C@H]1C[C@@H]2CC[C@@H](C)[C@@](O)(O2)C(=O)C(=O)N2CCCC[C@H]2C(=O)O[C@H]([C@H](C)C[C@@H]2CC[C@@H](OCCO)[C@H](OC)C2)CC(=O)[C@H](C)/C=C(\C)[C@@H](O)[C@@H](OC)C(=O)[C@H](C)C[C@H](C)/C=C/C=C/C=C/1C [RAD001, (1R,9S,12S,15R,16E,18R,19R,21R,23 S,24E,26E,28E,30S,32S,35R)-1,18-dihydroxy-12-{(1R)-2-[(1 S,3R,4R)-4-(2-hydroxyethoxy)-3-methoxycyclohexyl]-1-methylethyl}-19,30-dimethoxy-15,17,21,23,29,35-hexamethyl-11,36-dioxa-4-aza-tricyclo[30.3.1.04,9]hexatriaconta-16,24,26,28-tetraene-2,3,10,14,20-pentaone]	27	27	17	42	45	36	2.5	1.8	27	24	25	64	53	71	2.0	2.1	–
B1	–	–	–	–	–	–	–	–	–	–	–	–	–	–	–	–	no protection
